SMILES strings stand for the structures.

Data set [1] has as its system Syncytiotrophoblasten der Placenta. As to conditions: cited from earlier work; for PP-Bildung in Meerschweinchenplacenten: animal experiments, Archiv für Gynäkologie 216 (1974) and 221 (1976); for Auftreten von Plasmapolypen am Syncytiotrophoblasten der Placenta: poisoning of pregnant guinea pigs, within a few minutes, already known.
The subject of a further data set is Magenschleimhaut. Kind of data set: Plasma polyp (PP) formation at the gastric mucosa after application by stomach tube, PP isolated by reverse centrifugation and counted by phase-contrast microscopy. The settings on record: for Anzahl der PP pro 1 g Rattenmagen: stomach tube, about 20-30 min. The text has this: Die PP-Bildung, deren Konzentration und Auszählung wurden an Gruppen zu je 5 Ratten von 140 bis 160 g Körpergewicht, im Mittel 150 g, kontrolliert und die Anzahl der PP auf 1 g Magen (Leergewicht) umgerechnet. Die Tiere waren vor dem Versuch 15 bis 17 Stunden nahrungsfrei. Die Applikation der Testsubstanzen, die gelöst sind in Krebs-Ringer-Lösung (KRL) oder Aq.bidest, erfolgte per Schlundsonde. Die verabreichte Lösung besitzt einen pH-Wert von 7,0 bis 7,2. Die Verweildauer des applizierten Volumens hängt zum Teil ab von den Eigenschaften der Testsubstanz. […] Die Verweildauer der Testsubstanz bis zur Entnahme der Mägen einer Gruppe betrug etwa 20 bis maximal 30 min. Dabei werden dosisabhängig die abgeschnürten PP erfaßt.
Es wurden 5 Tierversuche - zu einer Serie zusammengefaßt - durchgeführt innerhalb von 40 min, wobei die Mägen wie folgt aufgearbeitet wurden: • 1. Jeder Ratte werden in nicht narkotisiertem Zustand 4,5 ml der Lösung bestehend aus der in KRL oder Aq.bidest gelösten Testsubstanz mittels einer Schlundsonde appliziert. • 2. Nach einer Einwirkzeit von etwa 15 bis 20 min werden 40 bis 45 mg Nembutal intraperitoneal appliziert, 2 bis 3 min zugewartet und dann der Magen während eines Zeitraums von etwa 5 min entnommen. • 3. Der Magen wird aufgeschnitten, der Inhalt aufgefangen, auf PP geprüft und der leere Magen in. oxygenierte KRL-Lösung mit Glucosezusatz geworfen. • 4. Alle 5 Mägen werden in der glucosehaltigen KRL dreimal hochtourig homogenisiert, das Homogenisat über ein feinmaschiges Sieb gegossen, und das Sieb wird mit 20 ml KRL nachgespült, so daß ein Endvolumen von 80 ml vorliegt. • 5. Die Volumina aus den Stufen 3 und 4 werden mit 8 ml eine: 7 %iger Lösung aus einem Copolymeren der Saccharose mit Epichlorhydrin unterschichtet und bei 2000 Umdrehungen/min im Schwingbecherrotor für 20 min zentrifugiert. • 6. Die die PP enthaltende Schicht wird erneut 60 min im Festwinkelrotor bei 13000 Umdrehungen/min (Ultrazentrifuge) zentrifugiert, der Uberstand wird verworfen und das Sediment weiterverarbeitet. • 7 Das Sediment wird einer umgekehrten Zentrifugation in der Ultrazentrifuge bei 25000 U/min für 45 min unterzogen. • 8. Die in einer Bohrung aufgefangenen PP aus der umgekehrten Zentrifugation werden in 50 µl KRL aufgenommen. • 9. Zur Auszählung der PP aus Stufe 8 bei einem Ansatz von jeweils 3 µl dient ein Phasenkontrastmikroskop. Es werden 10 Felder mit dem Rasterobjektiv ausgezählt, zum Teil unter fotografischer Kontrolle. Die in der nachfolgenden Tabelle aufgeführten Werte stammen jeweils aus drei Ansätzen; einer Probe von 5 Rattenmägen oder aus der Auswertung von 30 Feldern. • 10. Mittelwert pro Feld x Umrechnungsfaktor pro Feld x 16,6 ergibt die Zahl der PP pro Gramm Magen. Der Umrechnungsfaktor für die Feldfläche von 18 x 18 mm^2 ist 24,652.
Es wurden die in der folgenden Tabelle angegebenen Substanzen injiziert und dann die Anzahl der PP aus einer Serie von 5 Tieren als Mittelwert pro Gramm Rattenmagen oder gemittelt aus mehreren Serien mit jeweils 5 Tieren ermittelt.

In the case of `O=[N+]([O-])c1ccc(O)c([N+](=O)[O-])c1` [2.4-Dinitrophenol], the “PP-Bildung in Meerschweinchenplacenten” value in data set [1] is given as “keiner vermehrten PP-Bildung”.

With `CC(=O)C(=O)O` [Na-Pyruvat, Natriumpyruvat], the “Anzahl der PP pro 1 g Rattenmagen” value in the data set on Magenschleimhaut (0,5 mmol Na-Pyruvat in 4,5 ml Aq.bidest, 1 series of 5 rats) is recorded as “etwa 220.000 PP pro 1 g Rattenmagen”. The “PP-Zahlen gegenüber der Blindprobe (4,5 ml Aq.bidest)” value in the data set with Magenschleimhaut (Na-Pyruvat alone, compared with the blank) is on record as “keine Erhöhung”.

On to `CC(O)C(=O)O` (centres unmarked) [Na-Lactat], for which the “Anzahl der PP pro 1 g Rattenmagen” value with Magenschleimhaut (2,0 mmol Na-Lactat in 4,5 ml Aq.bidest, mean of 4 series of 5 rats) was 344.000 PP pro 1 g Rattenmagen.

For `[F-].[Na+]` [Natriumfluorid], in data set [1], the “PP-Bildung in Meerschweinchenplacenten” value is listed as “verstärkte, reproduzierbare Bildung und Abschnürung von Zellprotrusionen” and the “Auftreten von Plasmapolypen am Syncytiotrophoblasten der Placenta” value was “in großer Zahl”.

Take `O=C(O)O` [NaHCO3]: in the data set on Magenschleimhaut (1,33 mmol NaHCO3 in 4,5 ml Aq.bidest, mean of 4 series of 5 rats), the “Anzahl der PP pro 1 g Rattenmagen” value is reported as 333.700 PP pro 1 g Rattenmagen.

On to `CC(=O)Oc1ccccc1C(=O)O` [ASS, Acetylsalicylsäure], for which the “Anzahl der PP pro 1 g Rattenmagen” value is listed as 728.000 PP pro 1 g Rattenmagen with Magenschleimhaut (0,5 mmol ASS in 4,5 ml Aq.bidest, mean of 3 series of 5 rats) and 610.700 PP pro 1 g Rattenmagen with Magenschleimhaut (0,25 mmol ASS in 4,5 ml Aq.bidest, mean of 3 series of 5 rats).

Regarding `O=C(O)CI` [Monojodacetat], in data set [1], the “PP-Bildung in Meerschweinchenplacenten” value is “verstärkte, reproduzierbare Bildung und Abschnürung von Zellprotrusionen” and the “Auftreten von Plasmapolypen am Syncytiotrophoblasten der Placenta” value is “in großer Zahl”.
